# pKi: −log10 of the molar value.
# Target: Replicase polyprotein 1ab (Severe acute respiratory syndrome coronavirus 2, UniProt P0DTD1)
# Assay: SARS-CoV-2 Coronavirus 3C Protease FRET Assay
# Experimental: IC50 values were calculated by fitting a curve of Vmax to experimental values with the controls (DMSO) as the top and bottom limits of the curve. […] GraphPad Prism is the analysis tool for all measurements.
row,SMILES,pKi
1,"COC(=O)C[C@H](NC(=O)[C@@H]1CCCN1C(=O)c1cc2ccccc2[nH]1)C(=O)CF [WO2022021841, 1]",5.96
2,"COC(=O)C[C@H](NC(=O)[C@@H]1[C@@H]2[C@H](CN1C(=O)/C=C/c1ccccc1)C2(C)C)C(=O)CF [WO2022021841, 2]",6.96
3,"O=C(N[C@@H](C[C@@H]1CCNC1=O)C(=O)CF)C1[C@H]2CCC[C@H]2CN1C(=O)COc1ccc(Cl)cc1Cl (some centres undefined) [WO2022021841, 3]",7.74
4,"CC1CNC(=O)[C@@H]1C[C@H](NC(=O)C1[C@H]2CCC[C@H]2CN1C(=O)COc1ccc(Cl)cc1Cl)C(=O)CF (some centres undefined) [WO2022021841, 4]",7.92
5,"CC1CNC(=O)[C@@H]1C[C@H](NC(=O)C1[C@H]2CCC[C@H]2CN1C(=O)COc1cccc(-c2ccccc2)c1)C(=O)CF (some centres undefined) [WO2022021841, 5]",7.96
6,"CC1CNC(=O)[C@@H]1C[C@H](NC(=O)C1[C@@H]2[C@H](CN1C(=O)COc1ccc(Cl)cc1Cl)C2(C)C)C(=O)CF (some centres undefined) [WO2022021841, 6]",8.05
7,"CC1CNC(=O)[C@@H]1C[C@H](NC(=O)C1[C@@H]2[C@H](CN1C(=O)COc1ccc(Cl)c(Cl)c1)C2(C)C)C(=O)CF (some centres undefined) [WO2022021841, 7]",7.82
8,"CC1CNC(=O)[C@@H]1C[C@H](NC(=O)C1[C@@H]2[C@H](CN1C(=O)COc1cccc(-c3ccc(Cl)cc3)c1)C2(C)C)C(=O)CF (some centres undefined) [WO2022021841, 8]",7.77
9,"CC1(C)[C@@H]2C(C(=O)N[C@H](C=O)Cc3ccccc3)N(C(=O)c3ccc4ccccc4n3)C[C@@H]21 (some centres undefined) [WO2022021841, 9]",4.62
10,"CC1(C)[C@@H]2C(C(=O)N[C@H](C=O)Cc3ccccc3)N(C(=O)c3ccc4ccccc4c3)C[C@@H]21 (some centres undefined) [WO2022021841, 10]",6.23
11,"CCC[C@@H](NC(=O)C1[C@@H]2CCC[C@H]2CN1C(=O)c1cc2ccccc2[nH]1)C(=O)C(=O)NC1CC1 (some centres undefined) [WO2022021841, 11]",6.02
12,"CCC[C@@H](NC(=O)C1[C@@H]2CCC[C@H]2CN1C(=O)[C@@H](c1ccccc1)C(C)C)C(=O)C(=O)NC1CC1 (some centres undefined) [WO2022021841, 12]",4.77
13,"CCC[C@@H](NC(=O)C1C2[C@H](CN1C(=O)[C@@H](c1ccccc1)C(C)C)C2(C)C)C(=O)C(=O)NC1CC1 (some centres undefined) [WO2022021841, 13]",4.08
14,"CC1(C)[C@@H]2C(C(=O)N[C@H](C=O)C[C@@H]3CCNC3=O)N(C(=O)c3ccc4ccccc4c3)C[C@@H]21 (some centres undefined) [WO2022021841, 16]",6.46
15,"C[C@H](OCc1ccccc1)C(=O)N1C[C@@H]2CCC[C@@H]2C1C(=O)N[C@H](C=O)C[C@@H]1CCNC1=O (some centres undefined) [WO2022021841, 18]",7.55
16,"CC1(C)[C@@H]2C(C(=O)N[C@H](C=O)C[C@@H]3CCNC3=O)N(C(=O)COc3ccc4c(c3)OCO4)C[C@@H]21 (some centres undefined) [WO2022021841, 21]",7.14
17,"O=C[C@H](C[C@@H]1CCNC1=O)NC(=O)C1[C@@H]2CCC[C@H]2CN1C(=O)COc1ccc2c(c1)OCCO2 (some centres undefined) [WO2022021841, 22]",7.03
18,"COc1cccc(OCC(=O)N2C[C@H]3[C@@H](C2C(=O)N[C@H](C=O)C[C@@H]2CCNC2=O)C3(C)C)c1 (some centres undefined) [WO2022021841, 23]",7.43
19,"O=C[C@H](C[C@@H]1CCNC1=O)NC(=O)C1[C@@H]2CCC[C@H]2CN1C(=O)CCc1ccc(F)c(F)c1 (some centres undefined) [WO2022021841, 25]",7.80
20,"COc1ccc(OC(C)C(=O)N2C[C@@H]3CCC[C@H]3C2C(=O)N[C@H](C=O)C[C@@H]2CCNC2=O)cc1 (some centres undefined) [WO2022021841, 29]",7.11
21,"COc1ccc(OCC(=O)N2C[C@H]3[C@@H](C2C(=O)N[C@H](C=O)C[C@@H]2CCNC2=O)C3(C)C)cc1 (some centres undefined) [WO2022021841, 32]",7.44
22,"COc1cc(OCC(=O)N2C[C@H]3[C@@H](C2C(=O)N[C@H](C=O)C[C@@H]2CCNC2=O)C3(C)C)cc(OC)c1OC (some centres undefined) [WO2022021841, 35]",7.29
23,"CC(C)(Oc1ccc(Cl)cc1Cl)C(=O)N1Cc2ccccc2CC1C(=O)N[C@H](C=O)C[C@@H]1CCNC1=O (some centres undefined) [WO2022021841, 38]",7.04
24,"CC(C)(Oc1ccc(Cl)cc1Cl)C(=O)N1C[C@@H]2CCC[C@H]2C1C(=O)N[C@H](C=O)C[C@@H]1CCNC1=O (some centres undefined) [WO2022021841, 39]",7.48
